A short description of series [1]: Cytotoxicity against V79 chinese hamster lung cells was determined via MTT assay after 24 hr. Type of series: cell-based, Cricetulus griseus. (Tetrazolium assays rely on reduction of a dye to a coloured formazan, in cell work by metabolically active cells.)
The nature of series [2]: Ability to inhibit the growth of ovarian cell line 2008. Type of series: cell-based, Homo sapiens.
Series [3] in a line: […] lethal dose in CF1 mice bearing fluid Ehrlich Ascites tumor at a dose of 75-100 mg/kg. Format: ADME, organism-based. The note with it: mouse, in vivo.
Series [4] in a line: Cytotoxicity against V79 chinese hamster lung cells was determined via MTT assay after 72 hr. Format: cell-based, Cricetulus griseus.
A short description of series [5]: Ability to inhibit the growth of human breast line MCF-7.

In general, IC50 refers to the midpoint of a concentration-inhibition curve. High values mean a need for much substance, low ones inhibition by little substance. A word on the LD50: it is the dose expected to kill half of the subjects tested.

On to MOLYBDOCENE DICHLORIDE, for which the IC50 in series [1] was 820 µM; in series [2] it was 700 µM; in series [4], 350 µM; in series [5] it was 620 µM. This sequence had an LD50 in series [3] of 175 mg/kg.

The record behind these values is ChEMBL document CHEMBL1142737, “Organometallic anticancer agents: cellular uptake and cytotoxicity studies on thiol derivatives of the antitumor agent molybdocene dichloride” (J Med Chem, 2005).
